Assay results as given in paper PMC9039622 (Frontiers in Pharmacology, 2022).

Legend:
[1] = In vitro digestion of prodrugs by porcine pancreatin in simulated intestinal fluid (SIF); assay type: in vitro ADME; settings: for MG intermediate detected in SIF: after 30 min incubation; for half-life at 1.96 µg/ml: pig, pH 6.5, SIF with porcine pancreatin, read-out: apparent half-life of MG intermediate in SIF
Method: Briefly, the lipase solution was prepared by dispersion of porcine pancreatin (10,000 IU/ml) in a lipolysis buffer (pH 6.5) containing tris-maleate (2 mM), CaCl2 (1.4 mM) and NaCl (150 mM), followed by centrifugation at 2,000 g for 15 min at 5°C to provide the lipase solution as the supernatant. To start the hydrolysis, 100 µl of the lipase solution was added to a mixture of 20 µl of prodrug solution (0.1 mg/ml dissolved in acetonitrile) and 900 µl of simulated intestinal micellar solution (3 mM of sodium taurodeoxycholate and 0.75 mM of phosphatidylcholine dispersed in lipolysis buffer). The solution was incubated at 37°C. Samples (20 µl) of the incubation solution were taken at 0, 5, 10, 15, 30, 60, 90, 120 and 180 min post incubation and added to 180 µl of acetonitrile to stop lipolysis. The mixture was vortexed and centrifuged at 4,500 g for 5 min to precipitate proteins prior to analysis. The supernatant was analysed by HPLC-MS/MS for the potential products (Figure 1) of prodrug hydrolysis as described in the Supplementary Material.
(§1) Absolute quantification of the hydrolysis products, i.e., MG derivatives and BUP-linker-COOH forms (“acid” forms) was not attempted due to lack of authentic standards. Instead, the profiles for these species were plotted based on the peak areas obtained from HPLC-MS. […] To illustrate changes to the BUP-linker-acid forms, the relative changes were plotted as the peak areas on the right-hand Y axis in Figures 3 and 5.

[2] = In vitro incubation of prodrugs with LPL supplemented rat plasma; assay type: in vitro ADME, Sprague Dawley rat; settings: over 3 h
Method: […] is tethered to the luminal surface of vascular endothelial cells under physiological conditions ([Bensadoun 1991]). In the current in vitro studies, rat plasma was therefore supplemented with LPL to better reflect the in vivo situation. To start hydrolysis, 10 µl of LPL solution (10,000 IU/ml) was added to a mixture of 10 µl of prodrug solution (0.1 mg/ml dissolved in acetonitrile) and 500 µl of blank Sprague Dawley rat plasma. The solution was incubated at 37°C. Samples (20 µl) of the incubation solution were taken at 0, 5, 15, 30, 60, 90, 120 and 180 min post incubation and added to 180 µl of ACN to stop lipolysis. The mixture was vortexed and centrifuged at 4,500 g for 5 min to precipitate proteins prior to analysis.
as §1

[3] = design: method as in earlier work; settings: ref Tauber, Schroder, Dusterberg and Matthes 1986b; Shackleford et al., 2003; cited from earlier work

SMILES	MG intermediate detected in SIF [1]	BUP-linker-acid form detected in plasma [2]	half-life at 1.96 µg/ml [1] [min]	further results
CO[C@]12CC[C@@]3(C[C@@H]1[C@](C)(O)C(C)(C)C)[C@H]1Cc4ccc(OC(=O)CCCCOC(=O)CCC(=O)OC(CO)CO)c5c4[C@@]3(CCN1CC1CC1)[C@H]2O5 [BUP-CE-C4-MG]	only trace quantities	transiently detected		
CO[C@]12CC[C@@]3(C[C@@H]1[C@](C)(O)C(C)(C)C)[C@H]1Cc4ccc(OC(=O)CC(C)(C)c5c(C)cc(C)cc5OC(=O)CC(C)CC(=O)OC(CO)CO)c5c4[C@@]3(CCN1CC1CC1)[C@H]2O5 (stereo partly drawn) [BUP-TML-C5bMe-MG]		no BUP-linker-acid forms were detected		MG intermediate remaining in SIF ([1]; at the end of the 3 h incubation, relative peak area): more than 80%
CO[C@]12CC[C@@]3(C[C@@H]1[C@](C)(O)C(C)(C)C)[C@H]1Cc4ccc(OC(=O)CC(C)(C)c5c(C)cc(C)cc5OC(=O)CCC(=O)OC(CO)CO)c5c4[C@@]3(CCN1CC1CC1)[C@H]2O5 [BUP-TML-C4-MG]		no BUP-linker-acid forms were detected		MG intermediate remaining in simulated GI fluids ([1]; after 2 h): more than half
CO[C@]12CC[C@@]3(C[C@@H]1[C@](C)(O)C(C)(C)C)[C@H]1Cc4ccc(OC(=O)CC(C)CC(=O)OC(CO)CO)c5c4[C@@]3(CCN1CC1CC1)[C@H]2O5 (stereo partly drawn) [BUP-C5bMe-MG]		no BUP-linker-acid forms were detected	> 60	
CCCCCCCCCCC(=O)O[C@H]1CC[C@H]2[C@@H]3CCC4=CC(=O)CC[C@]4(C)[C@H]3CC[C@]12C [testosterone undecanoate]				oral bioavailability for TST [3]: ~5%
CO[C@]12CC[C@@]3(C[C@@H]1[C@](C)(O)C(C)(C)C)[C@H]1Cc4ccc(OC(=O)CCC(=O)OC(CO)CO)c5c4[C@@]3(CCN1CC1CC1)[C@H]2O5 [BUP-C4-MG]	only trace quantities	no BUP-linker-acid forms were detected	< 10	
